The target in data set [1] is T1, human GLP-1R (Homo sapiens, UniProt P43220). The data set can be described thus: GLP-1R CHO cell β-arrestin recruitment assay (PathHunter). Type of data set: cell-based. Details: host or cells: CHO-K1. The following applies: for EC50: CHO-K1 cells expressing Pro-Link-tagged Human GLP-1R and enzyme-acceptor-tagged β-arrestin-2, read-out: EC50 nM (SEM, n), hGLP1R induced β-Arrestin-2 recruitment relative EC50; for Emax: CHO-K1 cells, % stimulation with DMSO and GLP-1(7-36) as minimum and maximum controls, read-out: Emax % (SEM, n), hGLP1R induced β-Arrestin-2 recruitment. How it is done: GLP-1R CHO Cell β-Arrestin Recruitment Assay
Activated G-protein coupled receptors can interact with the β-arrestin family of signaling proteins. The potency of compounds for GLP-1R induced arrestin recruitment is determined using the PathHunter Enzyme Fragment Complementation approach substantially as described (von Degenfeld et al., FASEB J., 2007 (14):3819-26 and Hamdouchi et al., J. Med Chem., 2016 59(24):10891-10916). CHO-K1 cells expressing Pro-Link-tagged Human GLP-1R and enzyme-acceptor-tagged β-arrestin-2 may be obtained from DiscoveRx and prepared as assay-ready frozen cells. Test compounds are solubilized in DMSO and serial dilutions are performed using the Echo acoustic dispenser (LabCyte). Assay media is the PathHunter Cell Assay Buffer (DiscoveRx) containing 0.1% w/v hydrolyzed Casein (Sigma). 100 nL of test compound solution is dispensed into 10 μL of assay media in a 384 well plate and then 10 μL of cells in assay media are added to give 5000 cells per well. Plates are incubated for 90 min in a 37° C./5% CO2 incubator and 10 μL of PathHunter detection reagent is added (DiscoveRx) and plates are incubated at RT for 60 min. Luminescence signal is measured. Compound concentration-response curves fit to a four-parameter logistic model to calculate potency as an EC50 and percent top (Emax). Data normalization to % stimulation is performed using DMSO and GLP-1(7-36) as minimum and maximum controls (Campbell et al, Assay Guidance Manual 2017).
(Activated receptors often draw arrestin, which recruitment assays turn into a signal.)
Target sequence in this assay (P43220 24-463): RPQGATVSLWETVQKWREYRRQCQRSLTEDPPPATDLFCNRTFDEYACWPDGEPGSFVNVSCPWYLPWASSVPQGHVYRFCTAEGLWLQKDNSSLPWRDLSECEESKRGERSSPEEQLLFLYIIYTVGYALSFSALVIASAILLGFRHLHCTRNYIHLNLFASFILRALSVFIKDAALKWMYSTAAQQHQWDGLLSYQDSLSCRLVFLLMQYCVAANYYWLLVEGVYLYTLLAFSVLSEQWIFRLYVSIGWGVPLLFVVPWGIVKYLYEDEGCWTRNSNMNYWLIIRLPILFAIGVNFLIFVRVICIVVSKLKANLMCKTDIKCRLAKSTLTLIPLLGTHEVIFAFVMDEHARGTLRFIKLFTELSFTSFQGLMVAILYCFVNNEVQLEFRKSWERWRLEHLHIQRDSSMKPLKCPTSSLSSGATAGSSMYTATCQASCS
Target sequence in this assay (P32121 whole entry partner, the tested form may be a part): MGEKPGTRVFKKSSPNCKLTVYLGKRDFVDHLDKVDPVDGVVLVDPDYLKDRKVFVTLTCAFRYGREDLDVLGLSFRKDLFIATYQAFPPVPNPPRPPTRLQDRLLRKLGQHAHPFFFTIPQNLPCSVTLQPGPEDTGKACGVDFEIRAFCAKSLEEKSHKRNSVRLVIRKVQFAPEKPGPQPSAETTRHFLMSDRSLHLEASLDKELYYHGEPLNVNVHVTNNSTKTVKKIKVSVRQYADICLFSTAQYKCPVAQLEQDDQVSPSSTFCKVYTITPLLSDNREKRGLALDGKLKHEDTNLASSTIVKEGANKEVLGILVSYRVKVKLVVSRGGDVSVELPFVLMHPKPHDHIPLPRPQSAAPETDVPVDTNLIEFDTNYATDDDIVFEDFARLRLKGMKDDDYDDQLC

Data set [2] deals with T1, human GLP-1R. The experiment in a line: Human GLP-1 Receptor HEK293 cell cAMP assay, 581 fmol/mg GLP-1R expression density. Type of data set: cell-based. Set-up: expressed in transfected cells; host or cells: HEK293 clonal cell line. The conditions noted are these: HEK293 cell line with 581 fmol/mg expression density of GLP-1R; for EC50: geometric mean, read-out: EC50 nM (SEM, n), intracellular cAMP response, relative EC50; for Emax: percent of maximal response to GLP-1(7-36)NH2, arithmetic mean, read-out: Emax % (SEM, n), intracellular cAMP response. A digest of the protocol: (§1)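 HEK293 clonal lines expressing human GLP-1R, 20-point compound curves, 30 min at 37° C in DMEM with 0.1% casein, 250 μM IBMX, 0.5% DMSO. cAMP by HTRF, converted via standard curve to % of maximal human GLP-1(7-36)NH2 response; relative EC50 and Emax from four-parameter logistic fit.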
Target sequence in this assay (P43220 24-463): as the sequence (P43220 24-463) above

The target in data set [3] is T1, human GLP-1R. The data set can be described thus: Human GLP-1 Receptor HEK293 cell cAMP assay, 104 fmol/mg GLP-1R expression density. Type of data set: cell-based. Set-up: expressed in transfected cells; host or cells: HEK293 clonal cell line. The following applies: HEK293 cell line with 104 fmol/mg expression density of GLP-1R; for EC50: geometric mean, read-out: EC50 nM (SEM, n), intracellular cAMP response, relative EC50; for Emax: percent of maximal response to GLP-1(7-36)NH2, arithmetic mean, read-out: Emax % (SEM, n), intracellular cAMP response. The essentials: as §1
On the technique in general: Cyclic AMP is a second messenger, typically raised through Gs and lowered through Gi signalling.
Target sequence in this assay (P43220 24-463): as above

The conditions of data set [4]: cc_pd bond.
The conditions of data set [5]: cc_pd bond, 14-membered ring, 110.0 °C, 15.0 h.

Where two headings read alike, the source gives them in different places.

On to `COc1cc(-c2nnn[nH]2)cc2c1nc(Cc1ccc3cc1OCCCc1cc(C#N)ccc1COc1cccc-3n1)n2C[C@@H]1CCO1` [Example 12, (S)-1^4-((4-Methoxy-1-(oxetan-2-ylmethyl)-6-(1H-tetrazol-5-yl)-1H-benzo[d]imidazol-2-yl)methyl)-3,9-dioxa-2(2,6)-pyridina-1(1,3),5(1,2)-dibenzenacyclononaphane-5^4-carbonitrile], for which the EC50 (in general, the concentration giving half of the maximal effect) is over 49500 nM in data set [1], 20.2 nM in data set [2] and 66.3 nM in data set [3]. Moreover, the Emax – broadly, the size of the effect at its maximum, as opposed to the concentration needed – turned out to be 9.47% in data set [1], 81.8% in data set [2] and 46.4% in data set [3].
Turning to `N#Cc1ccc2c(c1)CCCOc1cc(c(F)cc1Cc1nc3ccc(C(=O)O)cc3n1C[C@@H]1CCO1)-c1cccc(n1)OC2` [Example 1, (S)-2-((5^4-Cyano-1^6-fluoro-3,9-dioxa-2(2,6)-pyridina-1(1,3),5(1,2)-dibenzenacyclononaphane-1^4-yl)methyl)-1-(oxetan-2-ylmethyl)-1H-benzo[d]imidazole-6-carboxylic acid], the results for the EC50 in data set [1], in data set [2] and in data set [3] were 213 nM, 19.8 nM and 59.7 nM, respectively. Also, the Emax in data set [1] stood at 42.9%; in data set [2] it was 95%; in data set [3] it was 71%.
Regarding `N#Cc1ccc2c(c1)CCCOc1cc(c(F)cc1Cc1nc3c(F)cc(C(=O)O)cc3n1C[C@@H]1CCO1)-c1cccc(n1)OC2` [Example 2, (S)-2-((5^4-Cyano-1^6-fluoro-3,9-dioxa-2(2,6)-pyridina-1(1,3),5(1,2)-dibenzenacyclononaphane-1^4-yl)methyl)-4-fluoro-1-(oxetan-2-ylmethyl)-1H-benzo[d]imidazole-6-carboxylic acid], the concentration for a half-maximal effect (EC50) in data set [1] came to 133 nM; in data set [2] it was 8.05 nM; in data set [3], 17.5 nM. The Emax came to 52.7% in data set [1], 98% in data set [2] and 72% in data set [3].
With `CCOC(=O)Cc1cc(F)c2cc1CCOc1cc(C#N)ccc1COc1cccc-2n1`, the ring closure, isolated yield in data set [4] (from CCOC(=O)Cc1cc(F)c(Br)cc1CCOc1cc(C#N)ccc1COc1cccc(Br)n1, 13-membered ring, Me6Sn2/Pd(dppf)Cl2, 1,4-dioxane, 50.0 mM, 100.0 °C, 3.0 h) was found to be 41%.
For `O=C(O)c1ccc2nc(Cc3ccc4cc3OCCCc3cc(Cl)ccc3COc3cccc-4n3)n(C[C@@H]3CCO3)c2c1` [Example 3, (S)-2-((5^4-Chloro-3,9-dioxa-2(2,6)-pyridina-1(1,3),5(1,2)-dibenzenacyclononaphane-1^4-yl)methyl)-1-(oxetan-2-ylmethyl)-1H-benzo[d]imidazole-6-carboxylic acid], the EC50 is 320 nM in data set [1], 44.1 nM in data set [2] and 132 nM in data set [3]. Further, the Emax came out at 34% in data set [1], 102% in data set [2] and 84% in data set [3].
In data set [4] (from CCOC(=O)Cc1cc(F)c(Br)cc1COCCc1cc(Cl)cc(F)c1COc1cccc(Cl)n1, 14-membered ring, B2pin2/KOPiv/XPhos Pd G2, then K3PO4, THF/water, 24.0 mM, 55.0 °C, 6.0 h, 2 steps), `CCOC(=O)Cc1cc(F)c2cc1COCCc1cc(Cl)cc(F)c1COc1cccc-2n1` had a ring closure, isolated yield of 27%.
`CCOC(=O)Cc1cc(F)c2cc1CCOCc1cc(C#N)ccc1COc1cccc-2n1` displayed a ring closure, isolated yield in data set [4] (from CCOC(=O)Cc1cc(F)c(B2OC(C)(C)C(C)(C)O2)cc1CCOCc1cc(C#N)ccc1COc1cccc(Cl)n1, 14-membered ring, XPhos Pd G2/K3PO4, THF/water, 25.0 mM, 70.0 °C, 0.5 h) of 34%.
As for `CCOC(=O)Cc1cc(F)c2cc1COCc1cc(Cl)ccc1COc1cccc-2n1`, the ring closure, isolated yield in data set [4] (from CCOC(=O)Cc1cc(F)c(Br)cc1COCc1cc(Cl)ccc1COc1cccc(Cl)n1, 13-membered ring, B2neo2/KOPiv/XPhos Pd G2, then K3PO4, THF, then THF/water, 25.0 mM, 55.0 °C, 5.25 h, 2 steps) came to 32%.
With `CCOC(=O)Cc1ccc2cc1COCC(F)(F)c1cc(C#N)ccc1COc1cccc-2n1`, in data set [4] (from CCOC(=O)Cc1ccc(Br)cc1COCC(F)(F)c1cc(C#N)ccc1COc1cccc(Br)n1, 14-membered ring, B2pin2/KOAc/Pd(dppf)Cl2, then XPhos Pd G2/K3PO4, 1,4-dioxane/water, 55.0 mM, 60.0 °C, 2.0 h, 2 steps), the ring closure, isolated yield came to 21%.
In turn, `FC(F)(F)c1cc2c(cn1)COc1cccc(n1)-c1ccc(Cl)c(c1)COCC2` displayed a ring closure, yield after HPLC in data set [5] (from FC(F)(F)c1cc(CCOCc2cc(Br)ccc2Cl)c(COc2cccc(Br)n2)cn1, XPhos Pd G3) of 14%.
Take `COC(=O)Cc1ccc2cc1COCCc1cc(C#N)ccc1COc1ccnc-2n1`: the ring closure, isolated yield in data set [4] (from COC(=O)Cc1ccc(B2OC(C)(C)C(C)(C)O2)cc1COCCc1cc(C#N)ccc1COc1ccnc(Cl)n1, 14-membered ring, XPhos Pd G2/K3PO4, THF/water, 36.0 mM, 50.0 °C, 6.0 h) was determined as 22%.
`CCOC(=O)Cc1cc(F)c2cc1OCCOc1cc(C#N)ccc1COc1cccc-2n1` returned a ring closure, isolated yield in data set [4] (from CCOC(=O)Cc1cc(F)c(Br)cc1OCCOc1cc(C#N)ccc1COc1cccc(Br)n1, 14-membered ring, B2pin2/KOAc/Pd(dppf)Cl2, then PdCl2/XPhos/K3PO4, THF/water, 8.9 mM, 45.0 °C, 16.0 h, 2 steps) of 32%.
`CCOC(=O)Cc1cc(F)c2cc1OCCCc1cc(C#N)ccc1CNc1cccc-2n1`: the ring closure, isolated yield in data set [4] (from CCOC(=O)Cc1cc(F)c(B2OCC(C)(C)CO2)cc1OCCCc1cc(C#N)ccc1CNc1cccc(Br)n1, 14-membered ring, PdCl2(dtbpf)/K3PO4, 1,4-dioxane/water, 43.0 mM, 70.0 °C, 2.0 h) was determined as 49%.
Consider `CCOC(=O)Cc1cc(F)c2cc1COCCc1cc(C#N)ccc1COc1ccc(F)c-2n1`, for which the ring closure, yield after HPLC in data set [5] (from CCOC(=O)Cc1cc(F)c(Br)cc1COCCc1cc(C#N)ccc1COc1ccc(F)c(Br)n1, XPhos Pd G3/Me3SnSnMe3/CsF, 1,4-dioxane, 11.4 mM) came to 29%.
In data set [4] (from CCOC(=O)Cc1cc(F)c(B2OC(C)(C)C(C)(C)O2)cc1OCCCc1cc(COc2cccc(Br)n2)ccc1C#N, 15-membered ring, PdCl2(dtbpf)/K3PO4, 1,4-dioxane/water, 27.0 mM, 50.0 °C, 0.25 h), `CCOC(=O)Cc1cc(F)c2cc1OCCCc1cc(ccc1C#N)COc1cccc-2n1` showed a ring closure, isolated yield of 38%.

(Values after US20240343740A1, “MACROCYCLIC GLUCAGON-LIKE PEPTIDE 1 RECEPTOR AGONISTS” (Eli Lilly and Company, priority 2021, published 2024).)
